Columns and labels:
[1] = tested on: HSC-3; test: High throughput drug screening (CellTiter-Glo, DSS); assay type: cell-based, human; settings: for drug sensitivity score (DSS): HSC-3, 72 h, 10-100,000 nM, myogel, non-irradiated; for delta DSS (ΔDSS): HSC-3, DSS irradiated (2 Gy) minus DSS non-irradiated, >5 synergy, <–5 antagonism
Protocol: (§1) The MPMs were screened against a panel of […] different cell lines (HSC-3, UT-SCC-8, UT-SCC-24A, UT-SCC-24B, UT-SCC-42A, UT-SCC-42B and NOF) at the High Throughput Biomedicine Unit (HTB) at the Institute for Molecular Medicine Finland (FIMM). On day 1, black-walled 384-well plates were coated with 5 µl diluted myogel (0.5 mg/ml) per well using an automated reagent dispenser (MultiFlo FX, BioTek, Winooski, VT, United States). On day 2, 500 cells per well were seeded in 20 µl of complete media using the MultiFlo FX (BioTek), and the cells were left to adhere overnight. On day 3, the MPMs, cisplatin, DMSO and Benzethonium chloride were added to the cells using an automatic liquid handler (Echo 550, Labcyte Inc., San Jose, CA, United States). Cisplatin and the MPMs were added to yield five different concentrations in a ten-fold dilution series ranging from 10 to 100,000 nM. Each concentration was tested in triplicate wells. DMSO (0.1%) and benzethonium chloride (100 µM) served as negative and positive control, respectively. Three hours later, some of the plates were irradiated with 2 Gy in a gamma irradiator (OB29/4, STS, Braunschweig, Germany). All plates were taken to the irradiation room to ensure similar handling of the plates. 72 h later, the plates were cooled to room temperature before 25 µl of CellTiter-Glo 2.0 reagent (Promega, Madison, WI, USA) was added to each well using the MultiFlo FX (BioTek). Next, the plates were centrifuged for 5 min at 1,000 rpm before the luminescence signal was measured with the PHERAstar FS HT reader (BMG LABTECH GmbH, Ortenberg, Germany). The raw data was analyzed with the Breeze software (https://breeze.fmm.fi), which normalized the luminescence signal from treated cells against the signal from negative and positive control cells to calculate the percentage of inhibition and generate dose-response curves, which were then used to calculate drug sensitivity scores (DSS). The DSS is a parameter which combines the IC50, the slope of the dose-response curve, and the minimum and maximum responses into a single metric, as previously described ([Yadav et al., 2014]). Quality control was performed by calculation of the Z′-factor, which was >0.7 for all cell lines, indicating high quality of the assay ([Zhang et al., 1999]).

[2] = tested on: NOF (normal oral fibroblasts); test: as above; assay type: cell-based, human; settings: for drug sensitivity score (DSS): 72 h, 10-100,000 nM, myogel, non-irradiated; for delta DSS (ΔDSS): DSS irradiated (2 Gy) minus DSS non-irradiated, >5 synergy, <–5 antagonism
Protocol: as §1

[3] = tested on: UT-SCC-106A; test: as above; assay type: cell-based, human; settings: for drug sensitivity score (DSS): 72 h, 10-100,000 nM, myogel, non-irradiated; for delta DSS (ΔDSS): DSS irradiated (2 Gy) minus DSS non-irradiated, >5 synergy, <–5 antagonism
Protocol: as §1

[4] = tested on: UT-SCC-24A; test: as above; assay type: cell-based, human; settings: for drug sensitivity score (DSS): 72 h, 10-100,000 nM, myogel, non-irradiated; for delta DSS (ΔDSS): DSS irradiated (2 Gy) minus DSS non-irradiated, >5 synergy, <–5 antagonism
Protocol: as §1

[5] = tested on: UT-SCC-24B; test: as above; assay type: cell-based, human; settings: for drug sensitivity score (DSS): 72 h, 10-100,000 nM, myogel, non-irradiated; for delta DSS (ΔDSS): DSS irradiated (2 Gy) minus DSS non-irradiated, >5 synergy, <–5 antagonism
Protocol: as §1

[6] = tested on: UT-SCC-42A; test: as above; assay type: cell-based, human; settings: for drug sensitivity score (DSS): 72 h, 10-100,000 nM, myogel, non-irradiated; for delta DSS (ΔDSS): DSS irradiated (2 Gy) minus DSS non-irradiated, >5 synergy, <–5 antagonism
Protocol: as §1

[7] = tested on: UT-SCC-42B; test: as above; assay type: cell-based, human; settings: for drug sensitivity score (DSS): 72 h, 10-100,000 nM, myogel, non-irradiated; for delta DSS (ΔDSS): DSS irradiated (2 Gy) minus DSS non-irradiated, >5 synergy, <–5 antagonism
Protocol: as §1

[8] = tested on: UT-SCC-8; test: as above; assay type: cell-based, human; settings: for drug sensitivity score (DSS): UT-SCC-8, 72 h, 10-100,000 nM, myogel, non-irradiated; for delta DSS (ΔDSS): UT-SCC-8, DSS irradiated (2 Gy) minus DSS non-irradiated, >5 synergy, <–5 antagonism
Protocol: as §1

[9] = tested on: UT-SCC-24A cells; test: Flow cytometric detection of apoptosis (Annexin V/PI); assay type: cell-based, human; settings: 24 h
Protocol: HSC-3 and UT-SCC-24A cells were seeded, 300,000 cells/well, in 6-well plates and left to adhere overnight. The media was then removed and replaced by 2 ml complete DMEM/F-12 containing 5, 7.5, 10 or 20 µM of MPM-2:0, MPM-6:0, MPM-3:2 or MPM-4:2, or 50 µM cisplatin. Some cells were left untreated. The cells were then incubated for 24 h. Next, the cell supernatants were collected before the cells were trypsinized and spun down with the supernatants. For the staining, an apoptosis detection kit was used (#88-8005-74, Thermo Fisher Scientific). The cells were washed once in PBS and once in 1x binding buffer before being incubated with FITC labeled Annexin V diluted 1:25 in 1 × binding buffer for 15 min. Next the cells were washed in 1 × binding buffer before being incubated with PI diluted 1:100 in 1 × binding buffer for at least 5 min before analysis was performed on the LSR Fortessa (BD Biosciences, CA, United States). Analyses were performed in FlowJo™ v.10 (https://www.flowjo.com/).

[10] = tested on: human red blood cells; test: Hemolysis assay; assay type: cell-based; settings: for EC50: Homo sapiens, Erythrocyte, 1 h, 37°C, highest concentration tested 500 μM, average of three experiments, read-out: EC50 hemolytic activity against human red blood cells
Protocol: The hemolytic effect of the MPMs was determined using a hemolysis assay as previously described ([Paulsen et al., 2021]). Briefly, hemolysis was determined using a heparinized fraction (10 IU/mL) of freshly drawn blood. The blood collected in ethylenediaminetetraacetic acid-containing test tubes (Vacutest, KIMA, Arzergrande, Italy) was used for the determination of the hematocrit (hct). The heparinized blood was washed 3 × with pre-warmed phosphate-buffered saline (PBS) and adjusted to a final hct of 4%. MPMs in DMSO (50 mM) were added to a 96-well polypropylene V-bottom plate (NUNC, Fisher Scientific, Oslo, Norway) and serially diluted. The test concentration range was 4–500 μM with DMSO contents ≤1%. A solution of 1% triton X-100 was used as a positive control for 100% hemolysis. As a negative control, a solution of 1% DMSO in PBS was included. Red blood cells (1% v/v final concentration) were added to the well plate and incubated at 37°C and 800 rpm for 1 h. After centrifugation (5 min, 3000 g), 100 μL from each well was transferred to a 96-well flat-bottomed microtiter plate, and absorbance was measured at 545 nm with a microplate reader (VersaMaxTM, Molecular Devices, Sunnyvale, CA, United States). The percentage of hemolysis was calculated as the ratio of the absorbance in the MPM treated and surfactant-treated samples, corrected for the PBS background. Three independent experiments were performed, and EC50 values are presented as averages.

[11] = tested on: seven HNSCC cell lines and one normal oral fibroblast cell line (NOF); test: High throughput drug screening, statements on the whole panel; assay type: cell-based, human; settings: 72 h, DSS
Protocol: as §1

SMILES | drug sensitivity score (DSS) [1] | delta DSS (ΔDSS) [1] | drug sensitivity score (DSS) [2] | delta DSS (ΔDSS) [2] | drug sensitivity score (DSS) [3] | delta DSS (ΔDSS) [3] | drug sensitivity score (DSS) [4] | delta DSS (ΔDSS) [4] | drug sensitivity score (DSS) [5] | delta DSS (ΔDSS) [5] | drug sensitivity score (DSS) [6] | delta DSS (ΔDSS) [6] | drug sensitivity score (DSS) [7] | delta DSS (ΔDSS) [7] | drug sensitivity score (DSS) [8] | delta DSS (ΔDSS) [8] | EC50 [10] | Annexin V−/PI+ population (in words) [9] | potency / effect on viability over the cell line panel (in words) [11] | also measured
N.N.[Cl][Pt][Cl] [Cisplatin, cisplatin, reference compound] | 15,6 | -0,8 | 9,6 | -1,9 | 9 | 0,3 | 8,9 | -0,9 | 11,6 | 0,7 | 7,1 | -0,1 | 7,7 | -0,6 | 16,8 | -0,8 |  |  |  | apoptotic (Annexin V+/PI−) population (in words) ([9]; cisplatin 50 µM, MPMs 5-20 µM): small, but clearly apoptotic (Annexin V+/PI−) population
CN(C)CCCCN1C(=O)N(CCCCN(C)C)C(=O)C(CCCc2ccccc2)(CCCc2ccccc2)C1=O [MPM-4:2] | 18,2 | 0,3 | 22,6 | 1,2 | 19,5 | -0,2 | 18,4 | -0,6 | 18,9 | -0,5 | 17 | 0,4 | 16,6 | -0,4 | 18,1 | 0,5 | > 500 µM | induced a large population of Annexin V−/PI + UT-SCC-24A cells | had the highest DSS | 
NCCN1C(=O)N(CCN)C(=O)C(CCCc2ccccc2)(CCCc2ccccc2)C1=O [MPM-2:0] | 19 | -0,7 | 18,3 | -0,7 | 18 | -0,5 | 18,7 | -0,7 | 18,3 | -0,1 | 19 | -0,7 | 18,7 | -0,1 | 19,2 | 0,6 | 379 µM |  | had the highest DSS | 
NCCCCCCN1C(=O)N(CCCCCCN)C(=O)C(CCCc2ccccc2)(CCCc2ccccc2)C1=O [MPM-6:0] | 17,8 | 0,7 | 18 | -0,3 | 17,9 | -0,4 | 18,6 | -0,2 | 18,3 | 0,1 | 17,9 | 0,3 | 18,4 | -0,5 | 19,5 | -0,8 | 92 µM |  | had the highest DSS | hemolytic activity against red blood cells (in words) ([10]; test range 4–500 μM): the most hemolytic compound
CN(C)CCCN1C(=O)N(CCCN(C)C)C(=O)C(CCCc2ccccc2)(CCCc2ccccc2)C1=O [MPM-3:2] | 17,9 | -0,2 | 19,3 | -1,6 | 18,6 | -0,2 | 17,9 | -0,2 | 18,4 | 0,1 | 16 | 0,6 | 15,7 | 0,3 | 17,8 | 0,1 | > 500 µM | induced a large population of Annexin V−/PI + UT-SCC-24A cells | had the highest DSS | 
